# According to patent US20210318315A1, “ULTRA-HIGH-THROUGHPUT MICROFLUIDIC ENZYME SCREENING PLATFORM FOR ENZYME DEVELOPMENT” (National University of Singapore, priority 2020, published 2021):
# What was measured:
# [1] = tested on: fluorescent protein-based NAD^+ biosensor (fluorescent core domain and bipartite NAD^+ binding domain); test: NAD^+ detection with fluorescent protein biosensor in microdroplets (fluorescence quenching by NAD^+ binding); assay type: biochemical; settings: 1 mM of NAD^+, excitation at 488 nm, emission at 520 nm
# Description: In some embodiments, the detection reagent comprises a biosensor, such as a protein biosensor, as one non-limiting example of a biosensor. The biosensor may be configured to react with the cofactor (or a redox couple of the cofactor) to generate (or quench) a luminescent signal. The generation (or quenching) of the luminescent signal may be used to detect, screen, and/or isolate droplets containing the target enzyme. In one example, the protein biosensor comprises a fluorescent core domain and a bipartite NAD+ and/or NADP+ binding domain. The fluorescent core domain has an excitation at 488 nm and an emission at 520 nm. In the presence of NAD+ and/or NADP+, the fluorescence from the core domain is quenched by binding of the NAD+ and/or NADP+ to the bipartite binding domain.
# A fluorescent protein-based NAD^+ biosensor was developed for quantitative detection of NAD^+. […] In this setup, the fluorescence from the core domain was quenched by NAD^+ binding corresponding to the concentration of the bound NAD^+ (FIG. 12A). The biosensor fluorescence intensity and NAD^+ concentration were negatively correlated in the range of 1 to 1000 μM of NAD^+. […] A nearly-linear correlation between the biosensor fluorescence intensity and NAD^+ concentration was shown at range of 50 μM to 1000 μM of NAD^+.
# [2] = tested on: thiolated DBC1 protein (deleted in breast cancer 1), NAD^+ binding domain linked to CdSe/CdS/CdZnS/ZnS quantum dot; test: NAD^+ detection with quantum dot sensor linked to thiolated DBC1 protein (fluorescence quenching); assay type: biochemical; settings: for reduction of fluorescence signal of the sensor: 1.5 μM of sensor, in microfluidics (droplets)
# Procedure: (4) Preparation of thiolated DBC1 protein (deleted in breast cancer 1). DBC1 protein was prepared by treated protein with 2-iminothiolane to introduce sulfhydryl residues onto a sulfydril:protein ratio of ˜20. Five mg of DBC1 dissolved in 1 mL of PBS (pH 7.4) was allowed to react with 2 mg of 2-iminothilane.HCl and kept at 4° C. for 2 h with vortex. The resulting solution was filtered through a size-exclusion centrifugal filter device (Micron YM-30, Millipore).
# (5) Preparation of DBC1 protein coated QDs. The MPA capped QDs were incubated with thiolated DBC1 protein in HEPES buffer (pH 7.4) for 5 days at 4° C.
# Another example for NAD^+ sensing was developed with a quantum dot fluorescence sensor through FRET effect (FIG. 13A). The highly fluorescent CdSe quantum dot core was coated with 3-mercaptopropionic acid and linked to a NAD^+ binding domain (thiolated DBC1 protein sensor). The protein sensor was reported to specifically bind NAD^+. When such binding occurs, the fluorescence of quantum dot was effectively quenched (FIG. 13B). Consequently, the fluorescence signal of the quantum dot sensor was negatively correlated to NAD+ concentration. This allowed accurate determination of NAD^+ based on the change of fluorescence signal.
# The performance of the quantum dot NAD^+ sensor was explored. The quantitative NAD^+ quenching was further examined and validated with an excitation at 538 nm and the fluorescence emission is detected at 595 nm. As concentration of NAD^+ increased, the fluorescence of the sensor was quenched at a very low NAD^+ concentration. The sensor enabled the detection of NAD^+ with a detection limit of 30 μM with a sensor concentration of 1.5 μM with a fixed incubation time of 20 minutes. When the NAD^+ concentration reached 250 μM and above, more than 90% fluorescence signal is quenched. […]
# For the NAD^+ detection in microfluidics, the fluorescence of 1.5 μM of sensor was examined with different concentration of NAD^+. The fluorescence signal of the sensor reduced ˜25% when incubated with 200 μM NAD^+, and reduced 45% in the presence of 250 μM NAD^+ (FIG. 14A). […]
smiles,measurement,setting,value
"NC(=O)c1ccc[n+]([C@@H]2O[C@H](COP(=O)([O-])OP(=O)(O)OC[C@H]3O[C@@H](n4cnc5c(N)ncnc54)[C@H](O)[C@@H]3O)[C@@H](O)[C@H]2O)c1 [NAD^+, nicotinamide adenine dinucleotide]",lower fluorescence signal (quenching by NAD^+),[1],21%
same,reduction of fluorescence signal of the sensor,[2]; 200 μM NAD^+,~25%
same,reduction of fluorescence signal of the sensor,[2]; 250 μM NAD^+,45%
same,fluorescence signal quenched,"[2]; NAD^+ 250 μM and above, sensor 1.5 μM, incubation 20 minutes, excitation at 538 nm, emission at 595 nm",more than 90%
